Results on ten compounds are retold here after US20070259875A1, “Triaryl substituted imidazole derivatives and taste-inhibiting uses thereof” (priority 2006, published 2007).

The target of one data set is T1, human TRPM5 (Homo sapiens, UniProt Q9NZQ8).
T1 construct: expressed in transfected cells
T1 sequence (Q9NZQ8 1-1165): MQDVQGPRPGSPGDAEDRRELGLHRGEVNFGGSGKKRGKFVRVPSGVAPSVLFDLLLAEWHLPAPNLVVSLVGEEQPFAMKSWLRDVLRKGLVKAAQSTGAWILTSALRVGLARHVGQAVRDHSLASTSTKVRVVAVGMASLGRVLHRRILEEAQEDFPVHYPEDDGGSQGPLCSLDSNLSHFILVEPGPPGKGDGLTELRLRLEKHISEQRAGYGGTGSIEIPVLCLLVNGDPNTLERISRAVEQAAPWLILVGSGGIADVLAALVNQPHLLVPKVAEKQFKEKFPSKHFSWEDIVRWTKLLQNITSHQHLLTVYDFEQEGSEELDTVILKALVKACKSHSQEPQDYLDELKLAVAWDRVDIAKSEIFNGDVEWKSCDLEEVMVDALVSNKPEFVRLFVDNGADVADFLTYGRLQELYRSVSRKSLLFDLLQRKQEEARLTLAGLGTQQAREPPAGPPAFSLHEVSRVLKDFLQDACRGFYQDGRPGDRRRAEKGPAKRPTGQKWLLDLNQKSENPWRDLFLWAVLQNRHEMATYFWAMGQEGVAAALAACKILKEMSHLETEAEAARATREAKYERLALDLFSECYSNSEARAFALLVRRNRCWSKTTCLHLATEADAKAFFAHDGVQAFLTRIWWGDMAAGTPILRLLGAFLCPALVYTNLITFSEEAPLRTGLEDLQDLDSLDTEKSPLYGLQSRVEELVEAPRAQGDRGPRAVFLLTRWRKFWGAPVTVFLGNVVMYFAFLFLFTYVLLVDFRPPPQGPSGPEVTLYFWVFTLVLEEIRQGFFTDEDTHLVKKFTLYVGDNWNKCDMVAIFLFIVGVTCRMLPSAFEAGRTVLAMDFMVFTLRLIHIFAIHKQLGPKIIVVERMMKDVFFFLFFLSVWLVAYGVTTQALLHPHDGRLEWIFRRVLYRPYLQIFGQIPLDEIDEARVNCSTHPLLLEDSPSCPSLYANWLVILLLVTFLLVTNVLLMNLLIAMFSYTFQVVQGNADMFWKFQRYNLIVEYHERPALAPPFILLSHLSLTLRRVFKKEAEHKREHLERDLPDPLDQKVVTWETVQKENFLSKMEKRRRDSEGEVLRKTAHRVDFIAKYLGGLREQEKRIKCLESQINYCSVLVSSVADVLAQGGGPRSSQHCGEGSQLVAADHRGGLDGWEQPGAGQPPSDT
Kind of data set: FLIPR membrane potential dye screening assay, ATP-stimulated, TRPM5-transfected HEK293 cells. In kind it is cell-based. The conditions noted are these: maximum percent inhibition at concentrations between 10 μM and 100 μM; HEK293 cells with human TRPM5; 10 μM ATP; versus negative control wells. The protocol:
Modulation of the activity of human taste receptor proteins was measured in live cells on a fluorescent imaging plate reader (FLIPR). The basis of the assay (shown in FIG. 1) is the calcium-dependent activation of the ion channel which occurs via by activation of a G-protein coupled receptor (GPCR). GPCR activation by an appropriate agonist causes a transient increase in intercellular Ca^2+ ion concentration which in turn causes the ion channel to open, allowing an influx of Na^+ ions. This influx leads to a change in the membrane potential of the cell, which can be monitored as a change in the fluorescent signal from voltage-dependent (membrane potential) fluorescent dyes.
A schematic representation of the assay is shown in FIGS. 2(A) and 2(B), where traces of fluorescent response versus time are shown for cells transfected with a plasmid encoding human TRPM5 or cells containing sham plasmid controls.
For the screening assay, the human TRPM5 gene was cloned, HEK293 cells were transfected with a plasmid containing the gene, and a stable, high expression clone was chosen for the screen. Cells were grown in standard media at 37° C. The day before screening, the cells were removed from flasks and added to 384 well clear bottom plates (12K cells in 20 μL/well). On the assay day, 20 μL of membrane potential dye (Part No. R8123, Molecular Devices Corp.) was added to the cells and dye was allowed to be taken up, i.e., loaded, into the cells for 1 hr at 37° C. […] The assay was started by addition of 10 μL of solution from the compound plate into the cell plate. During this process, continuous fluorescent recordings were made simultaneously for all wells. After addition of the compound solution, the tips were automatically washed and 10 μL of a stimulation solution of 60 μM ATP (an agonist for an endogenous purinurgic GPCR), was added to all wells of the cell plate (to give a final concentration of 10 μM ATP). The height of the response was calculated and percent inhibition values, versus negative control wells, was calculated for the test samples.
(§1) Unless otherwise indicated, the data in Table 1 were determined using the assays described above, providing maximum percent inhibition data at concentrations between 10 μM and 100 μM.

In data set [1] the test system is GPCR-mediated calcium activation step. In words: Calcium counterscreen (calcium sensitive dye, ATP stimulation, same cells). The data set is classed as cell-based. The conditions noted are these: maximum percent inhibition at concentrations between 10 μM and 100 μM, Calcium3 dye. As to the method:
Two counterscreen assays were run on separate cell plates utilizing the same cells as described above. In the calcium counterscreen, the cells were loaded with a calcium sensitive dye (Calcium3 Dye, Part no. 8090, Molecular Devices Corp.) and stimulated by ATP to check for compounds that block the GPCR-mediated calcium activation step. In the KCl counterscreen, cells were stimulated with 120 mM KCl (to give a final concentration of 20 mM KCl) instead of ATP to check for compounds that inhibit the membrane potential response by virtue of being non-specific ion channel blockers.
as §1

In the case of `COC(=O)c1ccc(-c2nc(-c3ccccc3)c(-c3ccccc3)[nH]2)cc1` [Example 1, methyl4-(4,5-diphenyl-1H-imidazol-2-yl)benzoate], the “TRPM5 Activity (maximum percent inhibition)” value on human TRPM5 is listed as 79%. The “Calcium Counterscreen (maximum percent inhibition)” value in data set [1] came to 0%.

As usually defined, the melting point is the temperature of the solid-liquid transition. As to `OCc1ccc(-c2nc(-c3ccccc3)c(-c3ccccc3)[nH]2)cc1` [Example 2, [4-(4,5-diphenyl-1H-imidazol-2-yl)phenyl]methanol], the melting point was found to be 50 °C. Further, on human TRPM5, the “TRPM5 Activity (maximum percent inhibition)” value was determined as 50%. Moreover, the “Calcium Counterscreen (maximum percent inhibition)” value in data set [1] turned out to be 0%.

For `Nc1ccc(-c2nc(-c3ccccc3)c(-c3ccccc3)[nH]2)cc1` [Example 3, 4-(4,5-diphenyl-1H-imidazol-2-yl)aniline], the “TRPM5 Activity (maximum percent inhibition)” value on human TRPM5 came out at 42%. Besides, the “Calcium Counterscreen (maximum percent inhibition)” value in data set [1] is reported as 0%.

Regarding `Oc1ccc(-c2nc(-c3ccccc3)c(-c3ccccc3)[nH]2)cc1` [Example 4, 4-(4,5-diphenyl-1H-imidazol-2-yl)phenol], the “TRPM5 Activity (maximum percent inhibition)” value on human TRPM5 amounted to 51%. The “Calcium Counterscreen (maximum percent inhibition)” value in data set [1] came to 0%.

Regarding `COC(=O)Nc1ccc(-c2nc(-c3ccccc3)c(-c3ccccc3)[nH]2)cc1` [Example 5, methyl4-(4,5-diphenyl-1H-imidazol-2-yl)phenylcarbamate], at human TRPM5, the “TRPM5 Activity (maximum percent inhibition)” value was found to be 19%. Moreover, the “Calcium Counterscreen (maximum percent inhibition)” value in data set [1] is given as 0%.

For the compound `CC(=O)Nc1ccc(-c2nc(-c3ccccc3)c(-c3ccccc3)[nH]2)cc1` [Example 6, N-[4-(4,5-diphenyl-1H-imidazol-2-yl)phenyl]acetamide], at human TRPM5, the “TRPM5 Activity (maximum percent inhibition)” value is on record as 29%. In data set [1], the “Calcium Counterscreen (maximum percent inhibition)” value stood at 0%.

As for `N#Cc1ccc(-c2nc(-c3ccccc3)c(-c3ccccc3)[nH]2)cc1` [Example 7, 4-(4,5-diphenyl-1H-imidazol-2-yl)benzonitrile], the “TRPM5 Activity (maximum percent inhibition)” value on human TRPM5 turned out to be 0%. The “Calcium Counterscreen (maximum percent inhibition)” value in data set [1] was found to be 0%.

For `CS(=O)(=O)NCc1ccc(-c2nc(-c3ccccc3)c(-c3ccccc3)[nH]2)cc1` [Example 8, N-[4-(4,5-diphenyl-1H-imidazol-2-yl)benzyl]methanesulfonamide], the “TRPM5 Activity (maximum percent inhibition)” value on human TRPM5 is 90%. For the same compound, in data set [1], the “Calcium Counterscreen (maximum percent inhibition)” value amounted to 0%.

For `O=C(O)c1ccc(-c2nc(-c3ccccc3)c(-c3ccccc3)[nH]2)cc1` [Example 9, 4-(4,5-diphenyl-1H-imidazol-2-yl)benzoic acid], the “TRPM5 Activity (maximum percent inhibition)” value at human TRPM5 came to 60%. In addition, the “Calcium Counterscreen (maximum percent inhibition)” value in data set [1] is 0%.

For `O=[N+]([O-])c1ccc(-c2nc(-c3ccccc3)c(-c3ccccc3)[nH]2)cc1` [Example 10, 2-(4-nitro-phenyl)-4,5-diphenyl-1H-imidazole], the “TRPM5 Activity (maximum percent inhibition)” value at human TRPM5 amounted to 100%. Besides, in data set [1], the “Calcium Counterscreen (maximum percent inhibition)” value was 0%.
